The source of these data is US8592422B2, “Bicyclic triazole and pyrazole lactams as allosteric modulators of mGluR5 receptors” (Vanderbilt University, priority 2010, dated 2013).

Values joined by “and” are separate entries in the source; they are usually repeats but may differ in a detail not shown here. Equal values may be shown once. Read-outs that look alike come from different tables or passages of the source. A value given as a limit tells only on which side of the number the result lay.

One series deals with T1, human mGluR5a receptor (Homo sapiens, UniProt P41594).
T1 construct: cDNA subcloned into pcDNA3.1(-)
T1 sequence (P41594 21-1180 isoform P41594-2 limits assumed): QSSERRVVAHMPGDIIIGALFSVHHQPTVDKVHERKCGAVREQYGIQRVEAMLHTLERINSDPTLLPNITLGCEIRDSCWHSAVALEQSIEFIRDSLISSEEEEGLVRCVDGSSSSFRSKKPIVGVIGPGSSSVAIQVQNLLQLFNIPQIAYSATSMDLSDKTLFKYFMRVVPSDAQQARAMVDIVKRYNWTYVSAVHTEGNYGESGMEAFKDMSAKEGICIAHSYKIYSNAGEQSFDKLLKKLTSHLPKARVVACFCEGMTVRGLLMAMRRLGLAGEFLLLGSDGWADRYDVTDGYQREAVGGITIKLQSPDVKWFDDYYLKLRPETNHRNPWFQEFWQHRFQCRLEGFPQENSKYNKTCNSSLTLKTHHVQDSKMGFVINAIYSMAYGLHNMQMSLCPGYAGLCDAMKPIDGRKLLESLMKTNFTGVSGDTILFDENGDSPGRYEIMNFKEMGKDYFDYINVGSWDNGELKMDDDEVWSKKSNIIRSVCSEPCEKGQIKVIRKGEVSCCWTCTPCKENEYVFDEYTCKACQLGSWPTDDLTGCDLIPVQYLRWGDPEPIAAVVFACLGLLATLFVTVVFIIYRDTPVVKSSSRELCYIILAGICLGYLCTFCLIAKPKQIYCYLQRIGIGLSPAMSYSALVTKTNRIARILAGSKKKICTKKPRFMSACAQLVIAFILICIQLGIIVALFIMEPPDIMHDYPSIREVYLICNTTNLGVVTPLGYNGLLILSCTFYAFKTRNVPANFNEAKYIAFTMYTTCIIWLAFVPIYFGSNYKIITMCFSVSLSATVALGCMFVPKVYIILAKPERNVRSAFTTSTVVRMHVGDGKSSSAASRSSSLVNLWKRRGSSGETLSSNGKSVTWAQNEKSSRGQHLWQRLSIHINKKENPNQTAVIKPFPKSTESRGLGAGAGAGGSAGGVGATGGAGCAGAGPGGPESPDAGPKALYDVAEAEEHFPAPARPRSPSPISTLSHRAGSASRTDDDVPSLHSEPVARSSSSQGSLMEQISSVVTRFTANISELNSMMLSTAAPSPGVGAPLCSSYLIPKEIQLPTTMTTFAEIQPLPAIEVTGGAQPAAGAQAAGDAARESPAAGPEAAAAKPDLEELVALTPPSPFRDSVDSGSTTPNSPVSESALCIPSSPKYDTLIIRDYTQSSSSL
Kind of series: Cell-based functional Ca2+ mobilization assay (FDSS), potentiation of glutamate EC20 response. The settings on record: for EC50: HEK cells transfected with human mGluR5 (H10H or H12H), in presence of EC20 glutamate. An outline of the steps:
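HEK293A cells stably expressing human mGluR5a (H10H or H12H clones), plated overnight in glutamate-glutamine-free medium, loaded with Ca2+-sensitive dye (e.g. Fluo-4) and read on FDSS.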

[1] abbreviates: maximum % effect in concentration-response curve, as percent of response to maximally effective glutamate.

In turn, `Cc1cccc(N2CCn3nc(COc4ccccn4)cc3C2=O)n1` [Example 206] showed a melting point of 109.8 °C. Also, the EC50 on human mGluR5a receptor (read-out: EC50) came out at 1510 nM. In addition, the maximal response (Emax) on human mGluR5a receptor (setting [1]) was found to be 67%.
`CC1CN(c2cccc(F)c2)C(=O)c2cc(COc3ccc(F)cc3)nn21` (racemic) [Example 235] showed a melting point of 128.1 °C. Moreover, the EC50 on human mGluR5a receptor (read-out: EC50) is 170 nM. For the same compound, the Emax at human mGluR5a receptor (setting [1]) stood at 64%.
In the same order, the values of `Cc1nc(N2C(=O)c3cc(COc4ccccc4)nn3C[C@@H]2C)ccc1F` [Example 138] are 93.3 °C, 316 nM and 59%.
In the same order, the values of `Cc1cc(N2CCn3nc(COc4ccccc4)cc3C2=O)ncc1F` [Example 72] are 134.7 °C, 91 nM and 72%.
In the same order, the values of `O=C1c2cc(COc3ccccc3)nn2CCN1c1ccncn1` [Example 80] are 148.9 °C, 1290 nM and 71%.
Regarding `CC1CN(c2ccc(F)cc2)C(=O)c2cc(COc3ccccc3)nn21` (racemic) [Example 19], the melting point turned out to be 99.5 °C. Further, at human mGluR5a receptor (read-out: EC50), the EC50 was determined as 71 nM. For the same compound, the Emax at human mGluR5a receptor (setting [1]) stood at 68%.
`CC1CN(c2ccc(F)cc2)C(=O)c2cc(COc3cccc(C#N)c3)nn21` (centres unmarked) [Example 241]: the melting point worked out at 110.2 °C. The EC50 at human mGluR5a receptor (read-out: EC50) was greater than 30200 nM. Further, the maximal response (Emax) at human mGluR5a receptor (setting [1]) came out at 21%.
In the same order, the values of `COc1ncccc1N1CCn2nc(COc3ccc(F)cc3)cc2C1=O` [Example 229] are 267.4 °C, 380 nM and 66%.
On to `O=C1c2cc(COc3cnccn3)nn2CCN1c1ccc(F)cc1` [Example 197], for which the melting point turned out to be 144.8 °C. Further, the EC50 at human mGluR5a receptor (read-out: EC50) is greater than 10000 nM. In addition, the Emax at human mGluR5a receptor (setting [1]) came out at 58%.
In the same order, the values of `CCOc1cccc(N2CCn3nc(COc4ccccc4)cc3C2=O)c1` [Example 59] are 115.8 °C, 130 nM and 57%.
The compound `O=C1c2cc(COc3ccccc3)nn2CCN1CC(F)(F)F` [Example 24] displayed a melting point of 132.1 °C. Besides, the EC50 at human mGluR5a receptor (read-out: EC50) turned out to be 2820 nM. The EC50 on human mGluR5a receptor (read-out: pEC50 (converted)) is 1660 nM. The Emax at human mGluR5a receptor (setting [1]) stood at 78%.
`O=C1c2cc(COc3ccccc3)nn2CCN1c1ccccc1F` [Example 9] returned a melting point of 154.7 °C. Besides, the EC50 at human mGluR5a receptor (EC50 (nM)) is 162 nM. Moreover, the Emax on human mGluR5a receptor (setting [1]) amounted to 82%.
Turning to `Cc1ccccc1N1C(=O)c2cc(COc3ccccc3)nn2C[C@H]1C` [Example 154], the melting point came out at 171.5 °C. Further, the EC50 on human mGluR5a receptor (read-out: EC50) came to 29 nM. Besides, on human mGluR5a receptor (read-out: pEC50 (converted)), the EC50 is 29.5 nM. For the same compound, the Emax on human mGluR5a receptor (setting [1]) was 72%.
Regarding `CN(C)c1cccc(OCc2cc3n(n2)CCN(c2ccc(F)cc2)C3=O)n1` [Example 310], the melting point was determined as 153.8 °C. Further, on human mGluR5a receptor (read-out: EC50), the EC50 was greater than 30200 nM. Also, the Emax on human mGluR5a receptor (setting [1]) stood at 26%.
For `CN(C)c1cccc(N2CCn3nc(COc4ccccc4)cc3C2=O)n1` [Example 286], the melting point was determined as 143.7 °C. Also, on human mGluR5a receptor (read-out: EC50), the EC50 turned out to be 30 nM. In addition, the EC50 on human mGluR5a receptor (read-out: pEC50 (converted)) is 36.3 nM and 29.5 nM. At human mGluR5a receptor (setting [1]), the Emax was determined as 76% and the “Emax (%)” value turned out to be 69%.
`N#Cc1ccnc(OCc2cc3n(n2)CCN(c2ccc(F)cc2)C3=O)c1` [Example 193] gave a melting point of 202.6 °C. Further, the EC50 at human mGluR5a receptor (read-out: EC50) was 437 nM. On human mGluR5a receptor (setting [1]), the Emax stood at 53%.
In the same order, the values of `O=C1c2cc(COc3ccccc3)nn2CCN1c1cnccn1` [Example 87] are 239.3 °C, 813 nM and 56%.
Consider `O=C1c2cc(COc3ccccc3)nn2CCN1CC1CC1(F)F` (centres unmarked) [Example 28], for which the melting point is 180.2 °C. In addition, the EC50 on human mGluR5a receptor (read-out: EC50) was 174 nM. For the same compound, the Emax on human mGluR5a receptor (setting [1]) is 60%.
Compound `Cc1ccc(N(C)C)nc1N1CCn2nc(COc3ccccc3)cc2C1=O` [Example 291] gave a melting point of 117.9 °C. Besides, the EC50 at human mGluR5a receptor (read-out: EC50) was 54 nM. At human mGluR5a receptor (setting [1]), the Emax came to 63%.
`COc1ncccc1N1C(=O)c2cc(COc3ccccc3)nn2C[C@H]1C` [Example 148] had a melting point of 145.5 °C. For the same compound, the EC50 at human mGluR5a receptor (read-out: EC50) is 174 nM. Further, the maximum response (Emax) on human mGluR5a receptor (setting [1]) is 71%.
In the same order, the values of `O=C1c2cc(COc3ccncc3)nn2CCN1c1ccc(F)cc1` [Example 160] are 149.5 °C, 631 nM and 68%.
`C[C@@H]1Cn2nc(COc3ccccc3)cc2C(=O)N1CC1CC1` [Example 137] had a melting point of 64.6 °C. Besides, the EC50 at human mGluR5a receptor (read-out: EC50) worked out at 240 nM. Besides, at human mGluR5a receptor (setting [1]), the Emax was determined as 66%.
In the same order, the values of `O=C1c2cc(COc3ccc(F)cc3)nn2CCN1c1ccc(F)cn1` [Example 179] are greater than 300 °C, 151 nM and 60%.
In the same order, the values of `COc1ccnc(OCc2cc3n(n2)CCN(c2ccc(F)cc2)C3=O)c1` [Example 195] are greater than 300 °C, greater than 10000 nM and 40%.
Taken in the same sequence, the figures for `Cc1cccnc1OCc1cc2n(n1)CCN(c1ccc(F)cc1)C2=O` [Example 185] were 270.1 °C, greater than 10000 nM and 51%.
`COc1nc(N2CCn3nc(COc4ccccc4)cc3C2=O)ccc1C` [Example 108] gave a melting point of 145.3 °C. Further, at human mGluR5a receptor (read-out: pEC50 (converted)), the EC50 is 17.8 nM. Moreover, on human mGluR5a receptor (setting [1]), the maximal effect (Emax) worked out at 64%.
With `COc1cc(N2CCn3nc(COc4ccccc4)cc3C2=O)nc(C)n1` [Example 105], the melting point was 131.9 °C. Besides, at human mGluR5a receptor (read-out: EC50), the EC50 worked out at 219 nM. The Emax at human mGluR5a receptor (setting [1]) was determined as 53%.
On to `O=C1c2cc(COc3ccccc3)nn2CCN1c1ccncc1` [Example 14], for which the melting point was 271.3 °C. At human mGluR5a receptor (read-out: EC50), the EC50 stood at 1480 nM. Also, the Emax at human mGluR5a receptor (setting [1]) worked out at 72%.
In the same order, the values of `O=C1c2cc(COc3ccc(O)cc3)nn2CCN1c1ccc(F)cn1` [Example 355] are 212.7 °C, 3630 nM and 55%.
Taken in the same sequence, the figures for `COc1cc(C)cc(N2CCn3nc(COc4ccccc4)cc3C2=O)n1` [Example 104] were 140.9 °C, 54 nM and 67%.
As for `Cc1cc(F)cc(N2CCn3nc(COc4ccccc4)cc3C2=O)c1` [Example 297], the melting point turned out to be 116.3 °C. In addition, at human mGluR5a receptor (read-out: EC50), the EC50 came out at 76 nM. The Emax at human mGluR5a receptor (setting [1]) is 71%.
Taken in the same sequence, the figures for `Cc1nc(N2C(=O)c3cc(COc4ccccc4)nn3C[C@H]2C)ccc1F` [Example 140] were 156 °C, 170 nM and 68%.
As to `Cc1ccccc1N1CCn2nc(COc3ccc(F)cc3)cc2C1=O` [Example 223], the melting point worked out at 148.2 °C. Moreover, the EC50 at human mGluR5a receptor (read-out: EC50) amounted to 98 nM. On human mGluR5a receptor (read-out: pEC50 (converted)), the EC50 is 100 nM. Further, the Emax on human mGluR5a receptor (setting [1]) came out at 63%.
`Cc1cc(N2C(=O)c3cc(COc4ccccc4)nn3C[C@H]2C)ncc1F` [Example 155] came in with a melting point of 99.3 °C. Further, the EC50 at human mGluR5a receptor (read-out: EC50) came out at 130 nM. The Emax at human mGluR5a receptor (setting [1]) was 62%.
In the same order, the values of `CC(C)c1cccc(N2CCn3nc(COc4ccccc4)cc3C2=O)n1` [Example 111] are 101.8 °C, 93 nM and 68%.
For the compound `O=C1c2cc(COc3ccccc3F)nn2CCN1c1ccc(F)cc1` [Example 190], the melting point was determined as 183.3 °C. For the same compound, the EC50 at human mGluR5a receptor (EC50 (nM)) worked out at 145 nM. For the same compound, at human mGluR5a receptor (setting [1]), the Emax was 66%.
For the compound `Cc1ncc(N2CCn3nc(COc4ccccc4)cc3C2=O)cn1` [Example 33], the melting point is 283.4 °C. For the same compound, on human mGluR5a receptor (read-out: EC50), the EC50 is greater than 10000 nM. Further, the maximum response (Emax) on human mGluR5a receptor (setting [1]) was determined as 67%.
In the same order, the values of `Cc1ccccc1OCc1cc2n(n1)CCN(c1ccc(F)cc1)C2=O` [Example 191] are 132.8 °C, 427 nM and 57%.
In the same order, the values of `Cc1cncc(OCc2cc3n(n2)CCN(c2ccc(F)cc2)C3=O)n1` [Example 200] are 156.6 °C, greater than 30200 nM and 21%.
Taken in the same sequence, the figures for `CC(C)CCc1cccc(N2CCn3nc(COc4ccccc4)cc3C2=O)n1` [Example 65] were 76.7 °C, 363 nM and 74%.
The compound `Cc1nc(N2CC(C)n3nc(COc4ccccc4)cc3C2=O)ccc1F` (centres unmarked) [Example 134] returned a melting point of 87.4 °C. For the same compound, the EC50 on human mGluR5a receptor (read-out: EC50) stood at 63 nM. In addition, the maximum response (Emax) at human mGluR5a receptor (setting [1]) amounted to 70%.
In the same order, the values of `O=C1c2cc(COc3ccccc3)nn2CCN1c1cccc(CF)n1` [Example 76] are 111.3 °C, 66 nM and 69%.
Taken in the same sequence, the figures for `COc1ccccc1N1CCn2nc(COc3ccc(F)cc3)cc2C1=O` [Example 221] were 117.3 °C, 190 nM and 66%.
Consider `Cc1cc(OCc2cc3n(n2)CCN(c2ccc(F)cc2)C3=O)ccn1` [Example 174], for which the melting point was greater than 300 °C. For the same compound, the EC50 on human mGluR5a receptor (read-out: EC50) was determined as 1260 nM. For the same compound, the Emax at human mGluR5a receptor (setting [1]) is 34%.
Taken in the same sequence, the figures for `COc1cc(C)nc(N2CCn3nc(COc4ccccc4)cc3C2=O)n1` [Example 99] were 183.7 °C, 646 nM and 67%.
Taken in the same sequence, the figures for `Cc1cc(N2CCn3nc(COc4ccccc4)cc3C2=O)ncn1` [Example 83] were 143.7 °C, 891 nM and 65%.
